Source: patent publication US20230167073A1 (Teijin Pharma Limited, priority 2020, published 2023)

Molecular target: T1, Human TRPC6 (Homo sapiens, UniProt Q9Y210)
T1 construct: expressed in transfected cells
T1 sequence (Q9Y210 1-931): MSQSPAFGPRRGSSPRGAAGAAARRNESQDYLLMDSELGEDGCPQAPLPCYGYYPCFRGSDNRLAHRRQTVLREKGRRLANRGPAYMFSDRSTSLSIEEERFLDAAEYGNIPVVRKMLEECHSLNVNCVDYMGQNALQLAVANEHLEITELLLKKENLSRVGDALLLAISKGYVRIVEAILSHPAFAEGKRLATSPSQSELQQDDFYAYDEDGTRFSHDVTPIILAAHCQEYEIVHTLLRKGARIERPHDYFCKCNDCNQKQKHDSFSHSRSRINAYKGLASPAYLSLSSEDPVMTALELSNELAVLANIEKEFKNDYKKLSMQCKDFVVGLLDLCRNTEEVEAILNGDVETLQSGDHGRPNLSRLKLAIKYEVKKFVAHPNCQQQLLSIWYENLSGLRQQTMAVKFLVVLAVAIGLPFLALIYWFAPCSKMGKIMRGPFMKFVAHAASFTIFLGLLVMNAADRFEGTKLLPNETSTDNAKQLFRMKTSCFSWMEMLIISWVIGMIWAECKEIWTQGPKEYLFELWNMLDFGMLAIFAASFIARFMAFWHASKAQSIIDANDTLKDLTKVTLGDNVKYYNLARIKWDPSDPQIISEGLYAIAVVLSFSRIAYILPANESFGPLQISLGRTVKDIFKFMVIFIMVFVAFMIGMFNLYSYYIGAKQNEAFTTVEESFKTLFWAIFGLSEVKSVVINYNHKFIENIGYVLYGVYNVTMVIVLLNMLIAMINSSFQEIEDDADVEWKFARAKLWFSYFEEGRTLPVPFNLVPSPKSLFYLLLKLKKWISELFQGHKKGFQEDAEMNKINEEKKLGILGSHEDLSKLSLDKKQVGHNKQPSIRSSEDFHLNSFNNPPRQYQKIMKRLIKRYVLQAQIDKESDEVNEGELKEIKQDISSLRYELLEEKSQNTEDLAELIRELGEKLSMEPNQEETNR
Test: Evaluation of TRPC6 channel inhibitory activity (1), FLIPR Calcium 5 Assay Kit, OAG stimulation (Compound Nos. 1-1293)
Format: cell-based
Conditions: Human TRPC6 stably-expressing cells, OAG 30 μM, FLIPR Calcium 5 Assay Kit; read-out: Inhibitory activity (pIC50 class) (converted)
How it was run: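 Cells stably expressing human TRPC6, plated 24 h before, were loaded 30 min with Calcium 5 dye plus probenecid in HEPES-HBSS. Compound was added 20 min before OAG (30 μM final) and fluorescence tracked on FLIPR. Inhibition normalised to no-compound and no-compound/no-OAG wells; pIC50 from four-parameter fit, reported as +/++/+++ categories.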

Row | IC50 [µM] | Structure (SMILES)
1 | > 1 | Cc1nc(Oc2cc(C#N)ccc2-c2nc(C(O)CN(C)C)c(C)n2C)cc(-c2ccccc2)n1 (centres unmarked) [Compound 99, 4-[4-[2-(dimethylamino)-1-hydroxyethyl]-1,5-dimethylimidazol-2-yl]-3-(2-methyl-6-phenylpyrimidin-4-yl)oxybenzonitrile]
2 | < 0.01 | CCOC(CN)c1ccc(-c2ccc(C#N)cc2Oc2cc(N3CCOCC3)nc(C)n2)cc1 (centres unmarked) [Compound 100, 4-[4-(2-amino-1-ethoxyethyl)phenyl]-3-(2-methyl-6-morpholin-4-ylpyrimidin-4-yl)oxybenzonitrile]
3 | < 0.01 | Cc1nc(Oc2cc(C#N)ccc2-c2ccc(C(CN)C(F)(F)F)cc2)cc(N2CCOCC2)n1 (centres unmarked) [Compound 101, 4-[4-(3-amino-1,1,1-trifluoropropan-2-yl)phenyl]-3-(2-methyl-6-morpholin-4-ylpyrimidin-4-yl)oxybenzonitrile]
4 | 0.01 to 1 | N#Cc1ccc(-c2ccc(CCN)nc2)c(Oc2cnnc(-c3ccccc3)c2)c1 [Compound 102, 4-[6-(2-aminoethyl)pyridin-3-yl]-3-(6-phenylpyridazin-4-yl)oxybenzonitrile]
5 | 0.01 to 1 | N#Cc1ccc(-c2ccc(CCN)cn2)c(Oc2cnnc(-c3ccccc3)c2)c1 [Compound 103, 4-[5-(2-aminoethyl)pyridin-2-yl]-3-(6-phenylpyridazin-4-yl)oxybenzonitrile]
6 | > 1 | Cc1nc(Oc2cc(C#N)ccc2-n2cc(C(O)CN(C)C)cn2)cc(-c2ccccc2)n1 (centres unmarked) [Compound 104, 4-[4-[2-(dimethylamino)-1-hydroxyethyl]pyrazol-1-yl]-3-(2-methyl-6-phenylpyrimidin-4-yl)oxybenzonitrile]
7 | > 1 | Cc1nc(Oc2cc(C#N)ccc2-n2cc(C(O)CN(C)C)cn2)cc(N2CCOCC2)n1 (centres unmarked) [Compound 105, 4-[4-[2-(dimethylamino)-1-hydroxyethyl]pyrazol-1-yl]-3-(2-methyl-6-morpholin-4-ylpyrimidin-4-yl)oxybenzonitrile]
8 | > 1 | Cc1nc(Oc2cc(C#N)ccc2-c2ccc(C(O)CN(C)C)cc2)cc(N2CCOCC2)n1 (centres unmarked) [Compound 106, 4-[4-[2-(dimethylamino)-1-hydroxyethyl]phenyl]-3-(2-methyl-6-morpholin-4-ylpyrimidin-4-yl)oxybenzonitrile]
9 | 0.01 to 1 | N#Cc1ccc(-c2ccc(CCN)cc2)c(Oc2cnnc(OC3CCCC3)c2)c1 [Compound 107, 4-[4-(2-aminoethyl)phenyl]-3-(6-cyclopentyloxypyridazin-4-yl)oxybenzonitrile]
10 | 0.01 to 1 | CC(C)(C)COc1cc(Oc2cc(C#N)ccc2-c2ccc(CCN)cc2)cnn1 [Compound 108, 4-[4-(2-aminoethyl)phenyl]-3-[6-(2,2-dimethylpropoxy)pyridazin-4-yl]oxybenzonitrile]
11 | > 1 | N#Cc1ccc(-c2ccc(CCN)cc2)c(Oc2cnnc(OCC(F)(F)F)c2)c1 [Compound 109, 4-[4-(2-aminoethyl)phenyl]-3-[6-(2,2,2-trifluoroethoxy)pyridazin-4-yl]oxybenzonitrile]
12 | > 1 | Cc1noc(C)c1-c1cc(Oc2cc(C#N)ccc2-c2ccc(CCN)cc2)cnn1 [Compound 110, 4-[4-(2-aminoethyl)phenyl]-3-[6-(3,5-dimethyl-1,2-oxazol-4-yl)pyridazin-4-yl]oxybenzonitrile]
13 | 0.01 to 1 | Cn1nc(C(F)(F)F)cc1-c1cc(Oc2cc(C#N)ccc2-c2ccc(CCN)cc2)cnn1 [Compound 111, 4-[4-(2-aminoethyl)phenyl]-3-[6-[2-methyl-5-(trifluoromethyl)pyrazol-3-yl]pyridazin-4-yl]oxybenzonitrile]
14 | < 0.01 | Cc1nc(Oc2cc(C#N)ccc2-c2ccc(CCN)cc2)cc(N2CCC[C@H]2C#N)n1 [Compound 112, (2S)-1-[6-[2-[4-(2-aminoethyl)phenyl]-5-cyanophenoxy]-2-methylpyrimidin-4 yl]pyrrolidine-2-carbonitrile]
15 | < 0.01 | N#Cc1ccc(-c2ccc(CCN)cc2)c(Oc2cc(N3CCOCC3)nc(C(F)(F)F)n2)c1 [Compound 113, 4-[4-(2-aminoethyl)phenyl]-3-[6-morpholin-4-yl-2-(trifluoromethyl)pyrimidin-4-yl]oxybenzonitrile]
16 | 0.01 to 1 | N#Cc1ccc(-c2ccc(CCN)cc2)c(Oc2cnnc(-c3ccccn3)c2)c1 [Compound 114, 4-[4-(2-aminoethyl)phenyl]-3-(6-pyridin-2-ylpyridazin-4-yl)oxybenzonitrile]

Row | IC50 [µM] | Structure (SMILES)
17 | < 0.01 | Cn1nc(-c2ccccc2)cc1Oc1cc(C#N)ccc1-c1ccc(CCN)cc1 [Compound 115, 4-[4-(2-aminoethyl)phenyl]-3-(2-methyl-5-phenylpyrazol-3-yl)oxybenzonitrile]
18 | 0.01 to 1 | N#Cc1ccc(-c2ccc(CCN)cc2)c(Oc2cnnc(-c3ccccc3F)c2)c1 [Compound 116, 4-[4-(2-aminoethyl)phenyl]-3-[6-(2-fluorophenyl)pyridazin-4-yl]oxybenzonitrile]
19 | 0.01 to 1 | N#Cc1ccc(-c2ccc(CCN)cc2)c(Oc2cnnc(-c3ccccc3OC(F)(F)F)c2)c1 [Compound 117, 4-[4-(2-aminoethyl)phenyl]-3-[6-[2-(trifluoromethoxy)phenyl]pyridazin-4-yl]oxybenzonitrile]
20 | 0.01 to 1 | COc1ccccc1-c1cc(Oc2cc(C#N)ccc2-c2ccc(CCN)cc2)cnn1 [Compound 118, 4-[4-(2-aminoethyl)phenyl]-3-[6-(2-methoxypheny)pyridazin-4-yl]oxybenzonitrile]
21 | > 1 | CC(=O)Nc1ccccc1-c1cc(Oc2cc(C#N)ccc2-c2ccc(CCN)cc2)cnn1 [Compound 119, N-[2-[5-[2-[4-(2-aminoethyl)phenyl]-5-cyanophenoxy]pyridazin-3-yl]phenyl]acetamide]
22 | < 0.01 | COC(=O)c1ccccc1-c1cc(Oc2cc(C#N)ccc2-c2ccc(CCN)cc2)cnn1 [Compound 120, methyl 2-[5-[2-[4-(2-aminoethyl)phenyl]-5-cyanophenoxy]pyridazin-3-yl]benzoate]
23 | > 1 | N#Cc1ccc(-c2ccc(CCN)cc2)c(Oc2cnnc(-c3ccccc3C(=O)O)c2)c1 [Compound 121, 2-[5-[2-[4-(2-aminoethyl)phenyl]-5-cyanophenoxy]pyridazin-3-yl]benzoic acid]
24 | 0.01 to 1 | N#Cc1ccc(-c2ccc(C(CN)C(F)(F)F)cc2)c(Oc2cnnc(N3CCOCC3)c2)c1 (centres unmarked) [Compound 122, 4-[4-(3-amino-1,1,1-trifluoropropan-2-yl)phenyl]-3-(6-morpholin-4-ylpyridazin-4-yl)oxybenzonitrile]
25 | 0.01 to 1 | N#Cc1ccc(-c2ccc(CCN)cc2)c(Oc2cnnc(O[C@H]3CCC[C@H]3O)c2)c1 [Compound 123, 4-[4-(2-aminoethyl)phenyl]-3-[6-[(1S,2R)-2-hydroxycyclopentyl]oxypyridazin-4-yl]oxybenzonitrile]
26 | 0.01 to 1 | N#Cc1ccc(-c2ccc(CCN)cc2)c(Oc2cnnc(O[C@H]3CCC[C@@H]3O)c2)c1 [Compound 124, 4-[4-(2-aminoethyl)phenyl]-3[6-[(1S,2S)-2-hydroxycyclopentyl]oxypyridazin-4-yl]oxybenzonitrile]
27 | 0.01 to 1 | N#Cc1ccc(-c2ccc(CCN)cc2)c(Oc2cnnc(OC3CCOC3)c2)c1 (centres unmarked) [Compound 125, 4-[4-(2-aminoethyl)phenyl]-3-[6-(oxolan-3-yloxy)pyridazin-4-yl]oxybenzonitrile]
28 | > 1 | CC(C)(C)OCCOc1cc(Oc2cc(C#N)ccc2-c2ccc(CCN)cc2)cnn1 [Compound 127, 4-[4-(2-aminoethyl)phenyl]-3-[6-[2-[(2-methylpropan-2-yl)oxy]ethoxy]pyridazin-4-yl]oxybenzonitrile]
29 | > 1 | Cc1cc(N2CCOCC2)cc(Oc2cc(C#N)ccc2-c2ccc(CCN)cc2)n1 [Compound 128, 4-[4-(2-aminoethyl)phenyl]-3-(6-methyl-4-morpholin-4-ylpyridin-2-yl)oxybenzonitrile]
30 | > 1 | Cc1nc(Oc2cc(C#N)ccc2-c2nc(C)c(C(O)CN)s2)cc(N2CCOCC2)n1 (centres unmarked) [Compound 129, 4-[5-(2-amino-1-hydroxyethyl)-4-methyl-1,3-thiazol-2-yl]-3-(2-methyl-6-morpholin-4-ylpyrimidin-4-yl)oxybenzonitrile]
31 | < 0.01 | Cc1nc(Oc2cc(C#N)ccc2-c2ccc(CCN)cc2)cc(N2CCC[C@@H]2C#N)n1 [Compound 130, (2R)-1-[6-[2-[4-(2-aminoethyl)phenyl]-5-cyanophenoxy]-2-methylpyrimidin-4-yl]pyrrolidine-2-carbonitrile]

Row | Structure (SMILES) | IC50 [µM]
32 | CC(C)(C)CCOc1cc(Oc2cc(C#N)ccc2-c2ccc(CCN)cc2)cnn1 [Compound 126, 4-[4-(2-aminoethyl)phenyl]-3-[6-(3,3-dimethylbutoxy)pyridazin-4-yl]oxybenzonitrile] | > 1
